Earlier results, collected in publication PMC9054008 (Science Advances, 2022).

target: I-Ab (Mus musculus, UniProt P14434+P14483); conditions: cited from earlier work
Sequence (P14434 whole entry, looked up): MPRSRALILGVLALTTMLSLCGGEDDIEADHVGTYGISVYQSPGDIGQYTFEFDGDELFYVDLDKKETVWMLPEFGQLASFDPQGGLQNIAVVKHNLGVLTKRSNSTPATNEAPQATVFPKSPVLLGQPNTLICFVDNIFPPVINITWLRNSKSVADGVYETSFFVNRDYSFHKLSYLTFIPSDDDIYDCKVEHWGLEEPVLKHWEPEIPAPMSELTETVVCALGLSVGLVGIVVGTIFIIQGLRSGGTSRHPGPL
Sequence (P14483 whole entry, looked up): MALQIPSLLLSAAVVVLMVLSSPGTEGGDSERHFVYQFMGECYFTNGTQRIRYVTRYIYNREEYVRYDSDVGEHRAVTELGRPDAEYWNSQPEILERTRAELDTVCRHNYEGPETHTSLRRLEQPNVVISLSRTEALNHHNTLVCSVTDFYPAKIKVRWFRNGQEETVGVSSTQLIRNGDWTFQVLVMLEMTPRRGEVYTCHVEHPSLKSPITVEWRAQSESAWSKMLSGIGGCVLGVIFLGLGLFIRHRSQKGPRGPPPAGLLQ

Sequence	IC50
EEALNVALAVVTLLA	2.73 µM
IEDAKRMIAISAKVA	6.99 µM
ILKGVINIWGSGLLQ	7.27 µM
KVFNTRRNTLLFLDL	4.62 µM
MDLADLFNAQPGLTS	5.78 µM
MGQLISFFGEIPSII	9.64 µM
NSLILLECFVRSSPA	6.03 µM
RHIVGKPCPKPHRLN	8.7 µM
SGDAMARNISSRTLE	5.34 µM
TKKSIKEIASSISRL	3.77 µM
